# Data as given in patent US20250333573A1, “METHOD FOR TEXTILE AND POLYESTER DECONSTRUCTION AND UPCYCLING TO BIOPLASTIC IN A HALOPHILE” (Battelle Memorial Institute, priority 2024, published 2025).
# Columns and labels:
# WT Halomonas elongata = assay: Growth of WT Halomonas elongata on subcritical water products and ethylene glycol (OD600); assay type: cell-based; conditions: 5 g/L ethylene glycol; minimal salts medium, 60 g/L NaCl
# Description: This was prepared with minimal salts medium directly and used as a growth substrate for the WT Halomonas elongata strain.
# The SCW product contained 4.1 g/L EG, and the final medium preparation contained ˜1.6 g/L EG.
# [1] = test system: Halomonas elongata DSMZ 2581; assay: Growth of Halomonas elongata on lactate and crotonate as the carbon source (OD600); assay type: cell-based; conditions: 3 g/L crotonic acid alone; MM63 medium, 60 g/L NaCl, pH 8.0
# Description: FIG. 30B: Growth of Halomonas elongata DSMZ 2581 in MM63 medium containing 3 g/L lactate, 3 g/L crotonate, and mixture of 3 g/L lactate and 3 g/L crotonate as indicated. MM63 medium contained 13.61 g/L KH·PO4, 4.21 g/L KOH, 1.98 (NH4)2SO4, 0.0011 g/L FeSO4—H2O 0.25 g/L MgSO4-7H2O, and 60 g/L NaCl set at pH=8.0. Points represent the average of three replicates and error bars are one standard deviation.
# Media was prepared with MM63 minimal salts medium directly and used as a growth substrate for Halomonas elongata strain. MM63 minimal salts medium contains 13.61 g/L KH·PO4, 4.21 g/L KOH, 1.98 (NH4)2SO4, 0.0011 g/L FeSO4—H2O 0.25 g/L MgSO4-7H2O, 60 g/L NaCl. […] Assuming linearity in biomass to substrate loading, and assuming the major carbon source was crotonate and/or lactate, the increased optical density over time would indicate a high conversion of the substrates in the Halomonas strain.
# Cell density was measured using a spectrophotometric assay detecting absorbance of each well/cuvette at 600 nm. The measurements were performed using a Thermo Scientific Genesys 150 spectrophotometer. A non-inoculated control was used to subtract background absorbance.
Structure (SMILES),final OD600 (WT Halomonas elongata),final optical density [1]
OCCO [ethylene glycol],3.16,–
"C/C=C/C(=O)O [crotonate, crotonic acid]",–,6.0
